Results on 14 compounds are retold here after PubChem BioAssay (NCI).

Test systems include NCI/ADR-RES ovarian; SK-MEL-5 melanoma; PC-3 prostate; SF-539 CNS; A549 NSCLC; BT-549 breast; COLO 205 colon; HCT-15 colon; HS 578T breast; HCC-2998 colon.
Common to all, as to test: growth of human tumour cells (NCI), 48 h

Each structure is given as a SMILES string. Values joined by “and” are separate entries in the source; they are usually repeats but may differ in a detail not shown here. Equal values may be shown once.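 Step 1: Grow cells in 96-well plates. Step 2: Expose to compound for 48 hours at 5 concentrations. Step 3: Interpolate endpoints linearly; if unreached, use highest concentration. GI50 marks 50% less growth. TGI: total growth inhibition.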 A value given as a limit tells only on which side of the number the result lay.

For the compound `CC(=O)O/C=C\OC1CCCC1(c1ccccc1)c1ccccc1` (stereo not drawn), the TGI with NCI/ADR-RES ovarian came to 8.53 µM; in the assay on SK-MEL-5 melanoma, 7.19 µM; with PC-3 prostate it was 9.15 µM; in the assay with SF-539 CNS it was 3.68 µM; in the assay on A549 NSCLC it was 43.8 µM; in the assay with BT-549 breast it was 4.66 µM. Further, the TGI came out at 13.8 µM in the assay with COLO 205 colon, 4.7 µM with HCT-15 colon, 9.8 µM in the assay on HS 578T breast and 24.3 µM with HCC-2998 colon.
In the case of `Cc1cc2c(cc1Cl)Sc1nnc(Nc3ccccc3)n1S2(=O)=O`, the TGI in the assay with NCI/ADR-RES ovarian came to 23.4 µM; in the assay with SK-MEL-5 melanoma it was 53.8 µM; in the assay on PC-3 prostate, 22.1 µM; in the assay with SF-539 CNS, 14.2 µM; in the assay with A549 NSCLC, 32.7 µM; in the assay on BT-549 breast, 34 µM. The TGI in the assay with HCT-15 colon came out at 28.9 µM; in the assay on HS 578T breast, 12.6 µM; with HCC-2998 colon, 14.2 µM.
Turning to `Cc1ccc(C(=O)N(C2CCCCC2)C2CCCCC2)cc1N=NN(C)C`, the TGI in the assay on NCI/ADR-RES ovarian stood at 47.8 µM; in the assay on SK-MEL-5 melanoma it was 28.1 µM; with PC-3 prostate, 22.2 µM; in the assay on SF-539 CNS it was 37.2 µM; in the assay with A549 NSCLC it was 31.8 µM; in the assay with BT-549 breast it was 26.8 µM. Moreover, the TGI is 33.6 µM in the assay on COLO 205 colon, 27.1 µM in the assay with HCT-15 colon, 43.9 µM with HS 578T breast and 29.4 µM in the assay with HCC-2998 colon.
As for `CCN(CC)Cc1nc2sc3c(c2c(=O)n1-c1ccccc1)CCCC3`, the TGI is 62.1 µM in the assay with NCI/ADR-RES ovarian; 31.7 µM with SK-MEL-5 melanoma; 34 µM with PC-3 prostate; 55 µM in the assay on A549 NSCLC; 53.6 µM in the assay with BT-549 breast; 43.6 µM in the assay with COLO 205 colon. In addition, the TGI in the assay with HCT-15 colon was found to be 51.7 µM; with HS 578T breast, 93.6 µM; with HCC-2998 colon it was 33.6 µM.
`CCOC(=O)/C(=C\NCC(O)c1ccccc1)c1nc2ccccc2[nH]1` (stereo not drawn): the TGI is 67.9 µM with NCI/ADR-RES ovarian; 22.9 µM in the assay on SK-MEL-5 melanoma; 47.8 µM in the assay with SF-539 CNS; > 100 µM in the assay with A549 NSCLC; 98.7 µM with BT-549 breast; 49.8 µM in the assay on COLO 205 colon. In addition, the TGI in the assay on HCT-15 colon is 74.3 µM; with HS 578T breast, 39.5 µM; in the assay with HCC-2998 colon it was 42.2 µM.
Consider `Cc1cnoc1NC1=CC(=O)C(=O)c2ccccc21`, for which the TGI was 70.9 µM with NCI/ADR-RES ovarian; 12 µM in the assay on SK-MEL-5 melanoma; > 100 µM in the assay with PC-3 prostate; 58.2 µM with SF-539 CNS; 63.8 µM in the assay with A549 NSCLC; > 100 µM in the assay on BT-549 breast. In addition, the TGI in the assay on COLO 205 colon, with HCT-15 colon and with HS 578T breast was > 100 µM throughout.
For `Cc1c(C)c(C)c(-n2[nH]c(=O)n(C)c2=O)c(C)c1C`, the TGI with NCI/ADR-RES ovarian, in the assay with SK-MEL-5 melanoma, in the assay with PC-3 prostate, in the assay with SF-539 CNS, in the assay with A549 NSCLC and with BT-549 breast was > 100 µM throughout. The TGI in the assay with COLO 205 colon, with HCT-15 colon and in the assay with HS 578T breast was > 100 µM in each case.
Turning to `CCCCOC(=O)C(=O)C(CCC(=O)c1ccc(C)cc1)C(=O)C=C(C)C` (stereo not drawn), the TGI in the assay on NCI/ADR-RES ovarian, in the assay on SK-MEL-5 melanoma, in the assay on PC-3 prostate, with SF-539 CNS, with A549 NSCLC and in the assay with BT-549 breast was > 100 µM in each case. Moreover, the TGI in the assay with HCT-15 colon, in the assay with HS 578T breast and in the assay on HCC-2998 colon was > 100 µM each time.
For `CN(C)C(=S)N/N=C\C=N/NC(=S)N(C)C`, the TGI in the assay on SK-MEL-5 melanoma, with PC-3 prostate, with SF-539 CNS, in the assay on A549 NSCLC, in the assay on BT-549 breast and with COLO 205 colon was > 100 µM throughout. Also, the TGI is > 100 µM with HCT-15 colon, > 23.4 µM in the assay with HS 578T breast and > 100 µM in the assay on HCC-2998 colon.
Take `COc1ccc2nc3cc(Cl)ccc3c(NCCCCCC(=O)NC(COc3cnc4c(ccc5cccnc54)c3)COc3cnc4c(ccc5cccnc54)c3)c2c1`: the TGI in the assay with NCI/ADR-RES ovarian is > 100 µM; in the assay on PC-3 prostate, 26.8 µM; in the assay with SF-539 CNS, 53.5 µM; in the assay on A549 NSCLC, > 100 µM; with BT-549 breast, 24.1 µM; in the assay on COLO 205 colon, 10.7 µM. Also, the TGI in the assay with HCT-15 colon is > 100 µM; in the assay on HS 578T breast, > 100 µM; in the assay with HCC-2998 colon, 27.9 µM.
Take `COc1ccc(N[C@H](CS(=O)c2ccc(C)cc2)c2ccc(F)cc2)cc1` (stereo partly drawn): the TGI with NCI/ADR-RES ovarian was > 100 µM; in the assay on SK-MEL-5 melanoma it was > 100 µM; in the assay with PC-3 prostate, > 100 µM; in the assay on SF-539 CNS it was 56.7 µM; with A549 NSCLC, > 100 µM; with BT-549 breast, > 100 µM. The TGI in the assay on COLO 205 colon, in the assay on HCT-15 colon and in the assay with HCC-2998 colon was > 100 µM throughout.
On to `N=C(N)SCCON1C(=O)c2ccccc2C1=O`, for which the TGI with NCI/ADR-RES ovarian, in the assay on SK-MEL-5 melanoma, in the assay with PC-3 prostate, in the assay with SF-539 CNS, in the assay with A549 NSCLC and with BT-549 breast was > 100 µM throughout. For the same compound, the TGI in the assay on COLO 205 colon, with HCT-15 colon and in the assay on HS 578T breast was > 100 µM throughout.
Regarding `COc1ccc(N2C=Nn3c(nc4sc(C)c(C)c4c3=O)C2)cc1`, the TGI in the assay with NCI/ADR-RES ovarian, in the assay with SK-MEL-5 melanoma, with PC-3 prostate, in the assay with A549 NSCLC, in the assay on BT-549 breast and in the assay with COLO 205 colon was > 100 µM throughout. The TGI with HCT-15 colon, with HS 578T breast and in the assay with HCC-2998 colon was > 100 µM throughout.
For the compound `CC(C)C[C@H](NC(=O)[C@H](Cc1cccc2ccccc12)NC(=O)N1CCOCC1)B(O)O`, the GI50 was 0.267 µM in the assay with NCI/ADR-RES ovarian; 0.00473 µM in the assay on PC-3 prostate; 0.000154 µM in the assay on SF-539 CNS; 0.00609 µM in the assay with A549 NSCLC; 0.00039 µM in the assay with BT-549 breast; 0.00482 µM and 0.015 µM in the assay with COLO 205 colon. In addition, the figures for the GI50 in the assay with HCT-15 colon and in the assay with HCC-2998 colon were 0.0363 µM and 0.00158 µM, respectively. The TGI in the assay on SK-MEL-5 melanoma was 0.00237 µM; with PC-3 prostate, 0.0191 µM and < 0.0235 µM; with SF-539 CNS, 0.00032 µM; with A549 NSCLC, 0.267 µM; in the assay with HCT-15 colon, 0.303 µM and 1.76 µM; in the assay with HCC-2998 colon it was 0.00302 µM.
